{"source": "patent US20250346588A1", "about": "“IMIDAZOPYRIDINE AND OXAZOLOPYRIDINE DERIVATIVES AND ANALOGS THEREOF, METHODS OF PREPARATION THEREOF, METHODS OF HIF-1/2A PATHWAY INHIBITION, AND INDUCTION OF FERROPTOSIS” (KUDA THERAPEUTICS, INC., priority 2022, published 2025)", "key": {"[1]": {"test_system": "RENCA syngeneic tumors", "test": "RENCA syngeneic tumor model, immunohistochemistry of tumors", "assay_type": "in vivo", "conditions": "Balb/c mice, once daily oral dosing, 14 days", "method": "A similar study was performed using RENCA cells, which are derived from a renal tumor that arose spontaneously in a male Balb/c mouse. RENCA cells were purchased from ATCC and 2 million cells were implanted into the flanks of Balb/c mice. Once tumors attained an average size of approximately 75-100 mm^3, mice were stratified into two groups and animals treated with either vehicle or 70 mg/kg 26HCL once daily PO. Mouse tumor volumes were measured three times a week until tumors reached approximately 3000 mm^3, or mice required euthanasia. […] FIG. 10B through 10D show western blot quantitation and MDA quantitation by TBARs assay, as performed for the 786-0 xenografts.\nSimilar studies were performed using 786-0 and RENCA tumor models treated with 62TFA. […] Immunohistochemistry was performed using standard techniques using CD8 (CST98941) and CD31 (CST77699) purchased from Cell Signaling Technologies."}, "[2]": {"test_system": "786-0 cells", "test": "TBARS assay of lipid peroxidation (MDA)", "assay_type": "cell-based, human", "conditions": "48h treatment", "method": "Malondialdehyde (MDA) is an end product of lipid peroxidation products and can be used to indicate lipid peroxidation, which is a hallmark of ferroptosis. MDA adducts were quantitated in cells and tumor tissue using the TBARS-TCA Method kit (Cat 700870, Cayman Chemicals, Ann Arbour Michigan) according to the manufacturer's protocol. Briefly, 786-0 cells were seeded at 1.75×10E6 cells in T75 cm^2 flasks, allowed to adhere overnight in a humidified incubator at 37° C. with 5% CO2, then treated with test compounds for 48 h, RSL3 (as positive control for 6h) or DMSO control (volume of DMSO kept constant for all flasks). Cells were detached by trypsinization, pelleted by centrifugation, washed in PBS twice, resuspended in 200 μL PBS, then sonicated for 3 minutes in a sonicating water bath. Representative data showing effects of 26HCL or 62TFA in comparison to RSL3, a classical ferroptosis inducer, is shown in FIG. 5. For MDA quantitation in tumor chunks, 20-50 mg of tumor tissue was homogenized in 200-500 μL of PBS, then sonicated for 5 minutes in a sonicating water bath. The cell or tumor lysates were subjected to the colorimetric detection methods described in manufacturer's protocol. MDA concentration of cells was determined in comparison to a standard curve of MDA stock solution provided by the manufacturer. Data was plotted using Prism GraphPad 9.3.1 Software. […]"}, "[3]": {"test_system": "HIF-2α Iron-Responsive Element (IRE)", "test": "HIF-2α IRE-Luc reporter assay", "assay_type": "cell-based, human", "conditions": "786-0 cells stably expressing HIF-2α IRE-Luc, 24h", "method": "Screens for inhibitory activity of compounds described herein were performed using 786-0 ccRCC cells that stably express HRE-Luc: 5 copies of the hypoxia-responsive element (HRE) fused to the pGL3 luciferase reporter (Promega Corp, Madison WI). 786-0 cells are pVHL deficient and thus constitutively express HIF-2α independently of cellular oxygen tension. Since 786-0 cells lack HIF-1α, HRE-driven luciferase activity is primarily HIF-2α driven, and has been previously validated. Cells were maintained at log phase growth in […] (DMEM) with 10% FBS in a humidified incubator at 37° C. with 5% CO2. For screening assays, cells were seeded at a density of 4,000 cells in 50 μl of complete media/well in quadruplicate wells/point in a 96-well plate. After 24 h, 50 μl of a 2× concentration of test compound was added to each well. […] After 24 h treatment, luciferase activity was measured using the Steady-Glo Luciferase assay system (Promega Corp) according to the manufacturer's protocol. Cell viability was measured in quadruplicate parallel wells using resazurin as recommended by the manufacturer (R&D systems, Minneapolis, MN). […] Representative data determined using Steady-Glo luciferase and resazurin are shown in FIGS. 1A and 1B respectively, with error bars showing SD. […]"}, "[4]": {"test_system": "RCC4 or 786-0 cells±pVHL re-expression", "test": "Cell viability with pVHL re-expression", "assay_type": "cell-based, human", "conditions": "48h"}, "[5]": {"test_system": "HIF-1α and HIF-2α", "test": "Western blots for HIF-1α and HIF-2α in ccRCC cells", "assay_type": "cell-based, human", "conditions": "786-0 or RCC10 ccRCC cells, 24h, relative to GAPDH", "method": "(§1) Western blots were performed to determine the effects of the compounds on levels of HIF-2α and other relevant proteins, whereas qPCR was performed to determine the effects of compounds on transcript levels of HIF target genes. 786-0 or RCC10 cells were plated at 1×10E5 cells/well in 2 ml DMEM with 10% FBS/well in 6-well tissue culture plates. Cells were allowed to adhere overnight in a humidified incubator at 37° C. with 5% CO2, after which the appropriate concentrations of compounds in DMSO were added. DMSO concentrations were kept constant in all wells. After 24 h exposure to the compounds, cells were lysed and subjected to western blotting according to standard protocols. Antibodies for HIF-1α and HIF-2α and GAPDH were purchased from Cell Signaling Technology (Danvers, MA), whereas antibodies to IRP2 and pVHL were from Santa Cruz Biotechnology (Dallas, TX), and GPX4 antibody was from R&D Systems, Inc (Minneapolis, MN). Representative data in FIG. 2 show a dose-dependent effect of compounds in decreasing HIF-1/2α. Compounds also impact cellular iron sensing given by increased IRP2, which taken together indicate that cells sense decreased amounts of available iron, which triggers the iron starvation response initiated by IRP2 stabilization. Representative data shown in FIG. 3D show a dose dependent effect of the compounds on GPX4, which may indicate decreased resistance to ferroptosis. […] The data also show increased expression of ISCA2 with pVHL re-expression."}, "[6]": {"test": "Bioavailability studies", "assay_type": "in vivo", "conditions": "Swiss albino mice, at a 100 mg/kg dose"}, "[7]": {"test_system": "IRP2 and GPX4", "test": "Western blots for cellular iron-sensing machinery (IRP2, GPX4)", "assay_type": "cell-based, human", "conditions": "786-0 or RCC10 ccRCC cells, 24h, relative to GAPDH", "method": "as §1"}}, "data": [{"smiles": "COc1nccc2[nH]c(Nc3nnc([C@H]4CC[C@@H](OC)CC4)o3)nc12", "note": "[Compound 62TFA, N-(4-methoxy-1H-imidazo[4,5-c]pyridin-2-yl)-5-((1s,4s)-4-methoxycyclohexyl)-1,3,4-oxadiazol-2-amine]", "values": [{"measurement": "CD8 cytotoxic T-cell infiltration (immunohistochemistry of tumors)", "setting": "[1]", "result": "increases CD8-T cell infiltration"}, {"measurement": "angiogenesis (CD31 immunohistochemistry of tumors)", "setting": "[1]", "result": "markedly decreases angiogenesis"}, {"measurement": "lipid peroxidation (MDA-TBA adducts)", "setting": "[2]", "result": "induce lipid peroxidation to an extent comparable to the ferroptosis inducer RSL3"}, {"measurement": "effect on IRE-luciferase reporter activity normalized to resazurin", "setting": "[3]", "result": "decrease IRE-mediated translation of HIF-2α"}, {"measurement": "effect of pVHL re-expression on cell viability response to compound", "setting": "[4]", "result": "re-expression of pVHL promotes resistance"}, {"measurement": "effect on HIF-1α and HIF-2α protein (Western blot)", "setting": "[5]", "result": "decreases HIF-1α and HIF-2α"}, {"measurement": "half-life", "setting": "[6]", "result": 7, "unit": "h"}, {"measurement": "Bioavailability F", "setting": "[6]; oral", "result": 55, "unit": "%"}, {"measurement": "effect on IRP2 protein (Western blot)", "setting": "[7]", "result": "increases IRP2"}]}]}
